Test results: patent US4619939A, “Process for reducing intraocular pressure” (priority 1985, dated 1986)
Like-named read-outs stand apart in the source and are kept apart here.

Assays:
stability in solution = assay type: physicochemical
Source text: The final property which is necessary for a compound used in this invention is that it be stable against decomposition in solution and in contact with the cornea. This property may be tested by dissolving the compound in aqueous solution and in solution containing corneal tissue to determine whether the compound has remained stable or has decomposed into other materials.

[1] = chloroform partition coefficient at pH 7.2; assay type: physicochemical
Protocol: Another critical property necessary in the inhibitors employed in this invention is the chloroform partition coefficient which must be at least 0.01. This property also relates to the lipid solubility of the compound employed and it is measured as described above with respect to ether. The procedure is the same as that described above except that chloroform is employed in place of ether.

carbonic anhydrase = carbonic anhydrase (Homo sapiens, UniProt P00918); assay: dissociation constant against carbonic anhydrase; assay type: biochemical
Source text: The dissociation constant is the concentration of the compound that will inhibit one-half of the carbonic anhydrase in a test system wherein the conditions are so arranged that the compound is present in excess of the carbonic anydrase.

[2] = ether partition coefficient at pH 7.2; assay type: physicochemical
Protocol: This property in conjunction with the chloroform coefficient is a measure of the lipid solubility of this compound. This is a critical feature since the compound must be readily absorbed by the lipid materials in the eye and be available for intimate contact with carbonic anhydrase so as to control its activity. This property is measured by preparing an aqueous solution of the compound at pH 7.2 and shaking the solution with an equal volume of ether until equilibrium is achieved in the system. An ether layer and an aqueous layer are formed, separated, and each analyzed for its content of the compound. The coefficient is the ratio of the amount of the compound in the ether layer to the amount of the compound in the aqueous layer. See, e.g., Maren, J. Pharm. […] Therap. Vol. 130, p.

[3] = first order rate constant for penetration through living rabbit cornea; assay type: in vivo
Protocol: Still another critical property of the inhibitor compounds employed in this invention is that the compound must have a first order rate constant for penetration of the compound through a living rabbit cornea of at least 0.005 hr^-1. This property is important in that it sets a standard for a speed in which the inhibitor will pass through the cornea to the interior of the eye and be available to inhibit the activity of carbonic anhydrase in that location. This is measured by placing a solution of the compound (about 0.5 ml) on the cornea of the living, lightly anesthetized rabbit. The lids are held by light hemostats in such a way as to create a well to hold the solution so that a steady state concentration is achieved. At timed intervals, samples are withdrawn from the anterior chamber of the rabbit and the fluid analyzed for the concentration of drug. The analyses are done by the method of Maren, supra. The data are treated to yield the first order rate constants which are cited herein.

injury to the cornea = assay type: in vivo; conditions: 2-5% solution
Source text: Still another critical property of the compounds employed in this invention is that they be pharmaceutically acceptable and not be injurious to the cornea being treated.

[4] = pKa by titration with NaOH; assay type: physicochemical
Source text: The pKa may be measured by titrating the compound with NaOH and finding the point at which half of the compound is neutralized. The pH at this point is the pKa.

[5] = topical administration of prior art inhibitors, intraocular pressure; assay type: in vivo
solubility in water = conditions: for ability to form an aqueous solution of sufficient concentration for topical use: near neutral pH
[6] = Foss 1955; cited from earlier work

| Compound | stability in solution (stability in solution) | chloroform partition coefficient [1] | ether partition coefficient [2] | in vivo rabbit cornea penetration rate constant [3] | injury or clouding of the cornea (injury to the cornea) | pKa ([4]; read-out: pKa) | reduction of intraocular pressure by topical application [5] | pKa [4] | ability to form an aqueous solution of sufficient concentration for topical use (solubility in water) | further results |
| --- | --- | --- | --- | --- | --- | --- | --- | --- | --- | --- |
| Cn1nc(S(N)(=O)=O)sc1=NC(=O)C(Cl)(Cl)Cl [trichloromethazolamide, 2-trichloroacetylimino-3-methyl-Δ^2-1,3,4-thiadiazoline-5-sulfonamide] | stable in solution for at least six hours | 4 | 56 | 0.063 h⁻¹ | does not injure or cloud the cornea | 7 |  |  |  | Ki (carbonic anhydrase): 20 nM |
| CCOc1ccc2nc(S(N)(=O)=O)sc2c1 [ethoxzolamide, 6-ethoxy-benzothiazole-2-sulfonamide] |  |  |  |  |  |  | ineffective | 8.1 |  | solubility (solubility in water; water): ≤ 40 µg/mL |
| Cn1nc(S(N)(=O)=O)sc1=NC(=O)C(F)(F)F [trifluoromethazolamide, 2-trifluoroacetylimino-3-methyl-Δ^2-1,3,4-thiadiazoline-5-sulfonamide] | stable in solution for two hours | 0.3 | 6.0 | 0.014 h⁻¹ | does not injure or cloud the cornea |  |  | 6.6 |  |  |
| CC(=O)Nc1nnc(S(N)(=O)=O)s1 [acetazolamide, 2-acetylamino-1,3,4-thiadiazole-5-sulfonamide] |  |  |  |  |  |  |  |  | cannot be made into a water solution below pH 8 at concentrations sufficiently high | lowering intraocular pressure by topical administration [6]: completely unsuitable |
| CC(=O)/N=c1/sc(S(N)(=O)=O)nn1C [Methazolamide, 2-acetylimino-3-methyl-Δ^2-1,3,4-thiadiazoline-5-sulfonamide] |  |  |  |  |  |  | not reduced except to a very slight extent in one of the series of tests | 7.4 | cannot be made into a neutral solution with a sufficiently high concentration |  |
| NS(=O)(=O)c1nnc(-c2ccccc2Cl)s1 [2-orthochlorophenylthiadiazole-5-sulfonamide] | stable in solution |  |  | 0.3 h⁻¹ |  | 7.3 |  |  |  |  |
